Measurements: patent US20230233569A1 (Revolution Medicines, Inc., priority 2020, published 2023)

Assays:
[1] = target: KRAS G12C (Homo sapiens, UniProt P01116+P62937, G12C); experiment: Ras-Raf disruption / FRET / MOA assay (BRAF RBD); format: biochemical; conditions: KRAS G12C FRET data IC50, Ras-Raf disruption, with Cyclophilin A
Procedure, shortened: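 TR-FRET read-out after 1.5 h with anti-His Eu-W1024 (10 nM) and anti-GST APC (50 nM), following 3 h at 25 °C of compound (top 30 μM, 3-fold, 10 points) with 25 μM Cyclophilin A, 12.5 nM GMPPNP-loaded K-Ras G12C and 50 nM BRAF RBD; IC50 reported.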

[2] = tested on: AsPC-1 (K-Ras G12D); experiment: Potency assay: pERK; format: cell-based; conditions: Homo sapiens, ASPC1, read-out: pERK EC50
[3] = target: KRAS G13D (Homo sapiens, UniProt P01116+P62937, G13D); experiment: Ras-Raf disruption / FRET / MOA assay (BRAF RBD); format: biochemical; conditions: KRAS G13D FRET data IC50, Ras-Raf disruption, with Cyclophilin A
Chain of KRAS G13D (P01116 1-169 isoform P01116-2 G13D limits assumed): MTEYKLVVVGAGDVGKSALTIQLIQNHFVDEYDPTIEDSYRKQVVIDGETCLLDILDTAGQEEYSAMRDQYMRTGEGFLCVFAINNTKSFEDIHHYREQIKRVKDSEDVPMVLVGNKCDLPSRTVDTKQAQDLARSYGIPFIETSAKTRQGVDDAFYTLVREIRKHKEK
Chain of KRAS G13D (P62937 whole entry): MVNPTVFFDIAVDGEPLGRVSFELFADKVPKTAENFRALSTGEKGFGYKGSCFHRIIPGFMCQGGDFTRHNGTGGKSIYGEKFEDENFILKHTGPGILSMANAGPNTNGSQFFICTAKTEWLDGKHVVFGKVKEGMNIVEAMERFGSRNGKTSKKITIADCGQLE
Procedure, shortened: (§1)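 Compound-induced Ras–Cyclophilin A ternary complex disrupting BRAF RBD binding, read as IC50 from reduced TR-FRET ratio relative to DMSO. Final: Ras-GMPPNP 12.5 nM, BRAF RBD 50 nM, Cyclophilin A 25 μM, top compound 30 μM (3-fold, 10 points); 3 h at 25 °C, then 1.5 h with detection antibodies.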

[4] = target: KRAS Q61H (Homo sapiens, UniProt P01116+P62937, Q61H); experiment: Ras-Raf disruption / FRET / MOA assay (BRAF RBD); format: biochemical
Chain of KRAS Q61H (P01116 1-169 isoform P01116-2 Q61H limits assumed): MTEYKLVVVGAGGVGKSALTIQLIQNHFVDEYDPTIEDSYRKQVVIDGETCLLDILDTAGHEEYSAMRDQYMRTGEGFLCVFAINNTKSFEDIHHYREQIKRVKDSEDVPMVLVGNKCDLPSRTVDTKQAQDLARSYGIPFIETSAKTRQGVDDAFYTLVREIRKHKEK
Chain of KRAS Q61H (P62937 whole entry): as the sequence (P62937 whole entry) above
Procedure, shortened: as §1

[5] = target: NRAS WT (Homo sapiens, UniProt P01111+P62937); experiment: Ras-Raf disruption / FRET / MOA assay (BRAF RBD); format: biochemical
Chain of NRAS WT (P01111 whole entry): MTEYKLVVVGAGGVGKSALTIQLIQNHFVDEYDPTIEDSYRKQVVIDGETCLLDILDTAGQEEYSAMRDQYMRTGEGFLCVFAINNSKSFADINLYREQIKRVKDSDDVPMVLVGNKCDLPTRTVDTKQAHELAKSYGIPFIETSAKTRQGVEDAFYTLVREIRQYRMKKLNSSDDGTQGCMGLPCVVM
Chain of NRAS WT (P62937 whole entry): as the sequence (P62937 whole entry) above
Procedure, shortened: as §1

[6] = target: KRAS G12V (Homo sapiens, UniProt P01116+P62937, G12V); experiment: Ras-Raf disruption / FRET / MOA assay (BRAF RBD); format: biochemical; conditions: KRAS G12V FRET data IC50, Ras-Raf disruption, with Cyclophilin A
Chain of KRAS G12V (P01116 1-169 isoform P01116-2 G12V limits assumed): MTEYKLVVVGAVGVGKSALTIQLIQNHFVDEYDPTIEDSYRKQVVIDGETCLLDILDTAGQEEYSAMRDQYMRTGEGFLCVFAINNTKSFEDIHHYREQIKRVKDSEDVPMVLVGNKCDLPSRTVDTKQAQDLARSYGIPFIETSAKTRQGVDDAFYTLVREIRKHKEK
Chain of KRAS G12V (P62937 whole entry): as the sequence (P62937 whole entry) above
Procedure, shortened: as §1

[7] = target: KRAS G12D (Homo sapiens, UniProt P01116+P62937, G12D); experiment: Ras-Raf disruption / FRET / MOA assay (BRAF RBD); format: biochemical; conditions: KRAS G12D FRET data IC50, Ras-Raf disruption, with Cyclophilin A
Chain of KRAS G12D (P01116 1-169 isoform P01116-2 G12D limits assumed): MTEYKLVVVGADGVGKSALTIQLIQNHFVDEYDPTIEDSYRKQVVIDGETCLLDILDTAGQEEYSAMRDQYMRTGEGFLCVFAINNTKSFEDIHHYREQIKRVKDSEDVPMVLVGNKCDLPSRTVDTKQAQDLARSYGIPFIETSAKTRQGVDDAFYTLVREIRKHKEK
Chain of KRAS G12D (P62937 whole entry): as the sequence (P62937 whole entry) above
Procedure, shortened: as §1

[8] = target: KRAS G12S (Homo sapiens, UniProt P01116+P62937, G12S); experiment: Ras-Raf disruption / FRET / MOA assay (BRAF RBD); format: biochemical; conditions: KRAS G12S FRET data IC50, Ras-Raf disruption, with Cyclophilin A
Chain of KRAS G12S (P01116 1-169 isoform P01116-2 G12S limits assumed): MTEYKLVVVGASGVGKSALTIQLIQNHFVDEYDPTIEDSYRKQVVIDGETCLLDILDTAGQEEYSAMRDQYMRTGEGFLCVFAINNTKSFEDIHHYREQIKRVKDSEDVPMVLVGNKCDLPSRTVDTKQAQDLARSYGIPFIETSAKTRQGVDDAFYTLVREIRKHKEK
Chain of KRAS G12S (P62937 whole entry): as the sequence (P62937 whole entry) above
Procedure, shortened: as §1

[9] = target: NRAS Q61K (Homo sapiens, UniProt P01111+P62937, Q61K); experiment: Ras-Raf disruption / FRET / MOA assay (BRAF RBD); format: biochemical
Chain of NRAS Q61K (P01111 whole entry Q61K): as the sequence (P01111 whole entry) above, with Q61K counted along it
Chain of NRAS Q61K (P62937 whole entry): as the sequence (P62937 whole entry) above
Procedure, shortened: as §1

[10] = target: KRAS G13C (Homo sapiens, UniProt P01116+P62937, G13C); experiment: Ras-Raf disruption / FRET / MOA assay (BRAF RBD); format: biochemical; conditions: KRAS G13C FRET data IC50, Ras-Raf disruption, with Cyclophilin A
Chain of KRAS G13C (P01116 1-169 isoform P01116-2 G13C limits assumed): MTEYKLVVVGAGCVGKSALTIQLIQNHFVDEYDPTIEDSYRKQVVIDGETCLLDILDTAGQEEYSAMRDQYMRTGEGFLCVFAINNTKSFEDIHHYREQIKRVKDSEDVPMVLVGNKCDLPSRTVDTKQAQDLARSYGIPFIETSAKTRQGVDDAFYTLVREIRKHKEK
Chain of KRAS G13C (P62937 whole entry): as the sequence (P62937 whole entry) above
Procedure, shortened: as §1

[11] = target: NRAS G12C (Homo sapiens, UniProt P01111+P62937, G12C); experiment: Ras-Raf disruption / FRET / MOA assay (BRAF RBD); format: biochemical; conditions: NRAS G12C FRET data IC50, NRAS G12C
Chain of NRAS G12C (P01111 whole entry G12C): as the sequence (P01111 whole entry) above, with G12C counted along it
Chain of NRAS G12C (P62937 whole entry): as the sequence (P62937 whole entry) above
Procedure, shortened: as §1

[12] = target: NRAS Q61R (Homo sapiens, UniProt P01111+P62937, Q61R); experiment: Ras-Raf disruption / FRET / MOA assay (BRAF RBD); format: biochemical
Chain of NRAS Q61R (P01111 whole entry Q61R): as the sequence (P01111 whole entry) above, with Q61R counted along it
Chain of NRAS Q61R (P62937 whole entry): as the sequence (P62937 whole entry) above
Procedure, shortened: as §1

[13] = target: KRAS WT (Homo sapiens, UniProt P01116+P62937); experiment: Ras-Raf disruption / FRET / MOA assay (BRAF RBD); format: biochemical; conditions: KRAS WT FRET data IC50, Ras-Raf disruption, with Cyclophilin A
Chain of KRAS WT (P01116 1-169 isoform P01116-2 limits assumed): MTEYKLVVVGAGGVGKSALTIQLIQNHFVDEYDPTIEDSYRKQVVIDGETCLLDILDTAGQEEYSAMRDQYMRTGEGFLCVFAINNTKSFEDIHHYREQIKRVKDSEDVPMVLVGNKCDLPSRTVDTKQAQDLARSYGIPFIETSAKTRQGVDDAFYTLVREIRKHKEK
Chain of KRAS WT (P62937 whole entry): as the sequence (P62937 whole entry) above
Procedure, shortened: as §1

[14] = tested on: NCI-H358 (K-Ras G12C); experiment: CellTiter-Glo cell viability assay; format: cell-based; conditions: Homo sapiens, NCI-H358, 120 h, read-out: H358 Cell Viability assay data IC50, K-Ras G12C, 5-day treatment
Procedure, shortened: (§2)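 Percent-of-DMSO luminescence values (CellTiter-Glo, day 5, plates equilibrated ~30 minutes at ambient temperature) were curve-fitted using a 4-parameter logistic equation; compounds had been added straight into wells containing the cells.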

[15] = tested on: AsPC-1 (K-Ras G12D); experiment: CellTiter-Glo cell viability assay; format: cell-based; conditions: Homo sapiens, ASPC1, 120 h, read-out: AsPC-1 Cell Viability assay data IC50, K-Ras G12D, 5-day treatment
Procedure, shortened: as §2

Chain of KRAS G12C (P01116 1-169 isoform P01116-2 G12C limits assumed): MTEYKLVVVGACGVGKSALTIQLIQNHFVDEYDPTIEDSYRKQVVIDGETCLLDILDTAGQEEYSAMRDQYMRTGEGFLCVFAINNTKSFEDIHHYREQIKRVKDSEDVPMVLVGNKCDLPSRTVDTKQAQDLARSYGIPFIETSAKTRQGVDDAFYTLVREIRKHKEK
Chain of KRAS G12C (P62937 whole entry): as the sequence (P62937 whole entry) above

Row | SMILES | IC50 [1] | EC50 [2] | IC50 [3] | IC50 [4] | IC50 [5] | IC50 [6] | IC50 [7] | IC50 [8] | IC50 [9] | IC50 [10] | IC50 [11] | IC50 [12] | IC50 [13] | IC50 [14] | IC50 [15]
1 | CCn1c(-c2cccnc2[C@H](C)OC)c2c3cc(ccc31)-c1cc(O)cc(c1)C[C@H](NC(=O)[C@H](C(C)C)N(C)C(=O)CN(C)C(=O)[C@H]1N[C@H]1C(F)(F)F)C(=O)N1CCC[C@H](N1)C(=O)OCC(C)(C)C2 [Example 259] | 10 to 100 nM | < 5000 nM | 10 to 100 nM | 10 to 100 nM | 10 to 100 nM | 10 to 100 nM | 100 to 1000 nM | 10 to 100 nM | 100 to 1000 nM | 10 to 100 nM | 10 to 100 nM | 100 to 1000 nM | 10 to 100 nM | 10 to 100 nM | 100 to 1000 nM
2 | CCn1c(-c2cccnc2[C@H](C)OC)c2c3cc(ccc31)-c1cc(O)cc(c1)C[C@H](NC(=O)[C@H](C(C)C)N(C)C(=O)CN(C)C(=O)[C@@H]1N[C@H]1C(F)(F)F)C(=O)N1CCC[C@H](N1)C(=O)OCC(C)(C)C2 [Example 260] | 10 to 100 nM | < 5000 nM | 10 to 100 nM | 10 to 100 nM | 10 to 100 nM | 10 to 100 nM | 10 to 100 nM | 10 to 100 nM | 10 to 100 nM | < 10 nM | 10 to 100 nM | 100 to 1000 nM | 10 to 100 nM | 10 to 100 nM | 100 to 1000 nM
3 | CCn1c(-c2cccnc2[C@H](C)OC)c2c3cc(ccc31)-c1cc(O)cc(c1)C[C@H](NC(=O)[C@H](C(C)C)N(C)C(=O)CN(C)C(=O)[C@H]1N[C@@H]1C(F)(F)F)C(=O)N1CCC[C@H](N1)C(=O)OCC(C)(C)C2 [Example 261] | 10 to 100 nM | < 5000 nM | 10 to 100 nM | 10 to 100 nM | 10 to 100 nM | 10 to 100 nM | 10 to 100 nM | 10 to 100 nM | 100 to 1000 nM | 10 to 100 nM | 10 to 100 nM | 100 to 1000 nM | 10 to 100 nM | < 10 nM | 100 to 1000 nM
4 | CC[C@H]1N[C@H]1C(=O)N(C)CC(=O)N(C)[C@H](C(=O)N[C@H]1Cc2cc(O)cc(c2)-c2ccc3c(c2)c(c(-c2cccnc2[C@H](C)OC)n3CC)CC(C)(C)COC(=O)[C@@H]2CCCN(N2)C1=O)C(C)C [Example 262] | 10 to 100 nM | < 5000 nM | 10 to 100 nM | 10 to 100 nM | 10 to 100 nM | 10 to 100 nM | 100 to 1000 nM | 10 to 100 nM | 100 to 1000 nM | 10 to 100 nM | 10 to 100 nM | 100 to 1000 nM | 10 to 100 nM | 10 to 100 nM | 100 to 1000 nM
5 | CC[C@@H]1N[C@@H]1C(=O)N(C)CC(=O)N(C)[C@H](C(=O)N[C@H]1Cc2cc(O)cc(c2)-c2ccc3c(c2)c(c(-c2cccnc2[C@H](C)OC)n3CC)CC(C)(C)COC(=O)[C@@H]2CCCN(N2)C1=O)C(C)C [Example 263] | < 10 nM | < 5000 nM | 10 to 100 nM | 10 to 100 nM | 10 to 100 nM | 10 to 100 nM | 10 to 100 nM | 10 to 100 nM | 100 to 1000 nM | 10 to 100 nM | < 10 nM | 100 to 1000 nM | 10 to 100 nM | 10 to 100 nM | 100 to 1000 nM
6 | CCn1c(-c2cccnc2[C@H](C)OC)c2c3cc(ccc31)-c1cc(O)cc(c1)C[C@H](NC(=O)[C@H](C(C)C)N(C)C(=O)CN(C)C(=O)[C@@H]1N[C@@H]1C(C)C)C(=O)N1CCC[C@H](N1)C(=O)OCC(C)(C)C2 [Example 264] | < 10 nM | < 5000 nM | 10 to 100 nM | < 10 nM | < 10 nM | 10 to 100 nM | 10 to 100 nM | < 10 nM | 10 to 100 nM | 10 to 100 nM | < 10 nM | 10 to 100 nM | < 10 nM | 10 to 100 nM | 100 to 1000 nM
7 | CCn1c(-c2cccnc2[C@H](C)OC)c2c3cc(ccc31)-c1cc(O)cc(c1)C[C@H](NC(=O)[C@H](C(C)C)N(C)C(=O)CN(C)C(=O)[C@H]1N[C@H]1C(C)C)C(=O)N1CCC[C@H](N1)C(=O)OCC(C)(C)C2 [Example 265] | 10 to 100 nM | < 5000 nM | 10 to 100 nM | 10 to 100 nM | 10 to 100 nM | 10 to 100 nM | 10 to 100 nM | 10 to 100 nM | 100 to 1000 nM | 10 to 100 nM | 10 to 100 nM | 100 to 1000 nM | 10 to 100 nM | 10 to 100 nM | 100 to 1000 nM
8 | CCn1c(-c2cccnc2[C@H](C)OC)c2c3cc(ccc31)-c1cc(O)cc(c1)C[C@H](NC(=O)[C@H](C(C)C)N(C)C(=O)CN(C)C(=O)[C@H]1CN1CCCOC(C)=O)C(=O)N1CCC[C@H](N1)C(=O)OCC(C)(C)C2 (stereo partly drawn) [Example 266] | < 10 nM | < 5000 nM | 100 to 1000 nM | 10 to 100 nM | 100 to 1000 nM | 100 to 1000 nM | 100 to 1000 nM | 10 to 100 nM | 100 to 1000 nM | 10 to 100 nM | < 10 nM | 100 to 1000 nM | 100 to 1000 nM | < 10 nM | 100 to 1000 nM
9 | CCn1c(-c2cccnc2[C@H](C)OC)c2c3cc(ccc31)-c1cc(O)cc(c1)C[C@H](NC(=O)[C@H](C(C)C)N(C)C(=O)CN(C)C(=O)[C@H]1CN1CC(=O)N(C)C)C(=O)N1CCC[C@H](N1)C(=O)OCC(C)(C)C2 (stereo partly drawn) [Example 270] | < 10 nM | < 5000 nM | 100 to 1000 nM | 100 to 1000 nM | 100 to 1000 nM | 100 to 1000 nM | 100 to 1000 nM | 10 to 100 nM | 1000 to 10000 nM | 10 to 100 nM | < 10 nM | 1000 to 10000 nM | 100 to 1000 nM | 10 to 100 nM | 100 to 1000 nM
10 | CCn1c(-c2cccnc2[C@H](C)OC)c2c3cc(ccc31)-c1cc(O)cc(c1)C[C@H](NC(=O)[C@H](C(C)C)N(C)C(=O)CN(C)C(=O)[C@H]1CN1CCCC#N)C(=O)N1CCC[C@H](N1)C(=O)OCC(C)(C)C2 (stereo partly drawn) [Example 273] | < 10 nM | < 5000 nM | 100 to 1000 nM | 10 to 100 nM | 10 to 100 nM | 10 to 100 nM | 100 to 1000 nM | 10 to 100 nM | 100 to 1000 nM | 10 to 100 nM | < 10 nM | 100 to 1000 nM | 10 to 100 nM | < 10 nM | 100 to 1000 nM
11 | CCn1c(-c2cccnc2[C@H](C)OC)c2c3cc(ccc31)-c1cc(O)cc(c1)C[C@H](NC(=O)[C@H](C(C)C)N(C)C(=O)CN(C)C(=O)[C@@H]1CN1CCCC#N)C(=O)N1CCC[C@H](N1)C(=O)OCC(C)(C)C2 (stereo partly drawn) [Example 274] | < 10 nM | < 5000 nM | 10 to 100 nM | 10 to 100 nM | 10 to 100 nM | 10 to 100 nM | 10 to 100 nM | 10 to 100 nM | 100 to 1000 nM | 10 to 100 nM | < 10 nM | 100 to 1000 nM | 10 to 100 nM | < 10 nM | 100 to 1000 nM
